The nature of data set [1]: Liver Microsome Stability Assay (mouse). Conditions: mouse liver microsomes, with NADPH, 1.0 uM compound. On the technique in general: Liver microsomes are a subcellular fraction often used to study metabolism.
Procedure: (§1) Stability of a compound was assessed in the presence of liver microsomes from various sources—mouse, rat, monkey and human liver microsomes. 1.0 uM compound, 0.4% DMSO in 0.1 M Potassium Phosphate with 1.0 mg/mL liver microsomes, were incubated at 37° C. with or without 1 mM NADPH. The samples were quenched at 0, and 30 minutes.
For data set [2], the system named is multiple myeloma cell line NCI-H929. The data set is described as follows: H929 Cell Viability Assay. In kind it is cell-based, human. Particulars: Homo sapiens, NCI-H929, 48 h, NCI-H929 cells, Celltiter-Glo. The gist of the method:
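NCI-H929 cells in RPMI 1640 with 10% FBS were treated with compound dilutions for 48 h at 37° C, 5% CO2. Viability was read by CellTiter-Glo luminescence. Undefined stereocentres denote stereoisomer mixtures.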
(ATP-based viability assays read luminescence as a measure of living cells.)

In data set [3] the test system is PD1-ss+10aa/Gaussia Luciferase. The data set is described as follows: Dox-Induced PD1-ss-Gluc Assay. In kind it is cell-based. Particulars: 24 hr Dox induction; 293FRT/TO cells; read-out: 24 hr Dox Inducible PD1ssGluc 293FRT/TO: Mean IC50. The gist of the method:
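Flp-In 293 T-REx cells stably carrying a doxycycline-inducible Gaussia luciferase fused to the PD1 signal sequence plus 10 aa were plated the day before. Compound dilutions in DMSO/media containing doxycycline were then added and incubated at 37 °C, 5% CO2. Data for undefined stereochemistry refer to stereoisomer mixtures.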

The subject of data set [4] is TNFα-FL/Gaussia Luciferase. The data set is described as follows: Dox Induced TNFα-FL-Gluc Assay. In kind it is cell-based. Particulars: for IC50: 24 hr Dox induction, 293FRT/TO cells, read-out: 24 hr Dox Inducible TNFaFLGluc 293FRT/TO: Mean IC50; for 24 hr Dox Inducible TNFaFLGluc 293FRT/TO: TNF/PD1: ratio of TNFaFLGluc IC50 to PD1ssGluc IC50. The gist of the method:
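Flp-In 293 T-REx cells stably carrying doxycycline-inducible full-length TNFα (aa 1-233) fused to Gaussia luciferase. Plated the day before, then treated with compound dilutions in doxycycline-containing medium at 37° C, 5% CO2.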

The subject of data set [5] is HER3-ss+4aa/Gaussia Luciferase. The data set is described as follows: Dox-Induced Her3-ss-Gluc Assay. In kind it is cell-based. Conditions: 24 hr Dox induction; 293FRT/TO cells; read-out: 24 hr Dox Inducible Her3(ss + 4)Gluc 293FRT/TO: Mean IC50. The gist of the method:
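Stable Flp-In 293 T-REx cells carried a doxycycline-inducible HER3 signal sequence (+4 aa) fused to Gaussia luciferase. Cells were plated the day before the assay. Compound dilutions in DMSO/media containing doxycycline were then added, and plates were incubated at 37 °C, 5% CO2.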

Data set [6] can be described thus: Liver Microsome Stability Assay (monkey). Conditions: monkey liver microsomes, with NADPH, 1.0 uM compound.
Procedure: as §1
Data set [7] can be described thus: Liver Microsome Stability Assay (rat). Conditions: rat liver microsomes, with NADPH, 1.0 uM compound.
Procedure: as §1
In data set [8] the test system is multiple myeloma cell line U266B1. The data set is described as follows: U266 Cell Viability Assay. In kind it is cell-based, human. Particulars: Homo sapiens, U-266, 48 h, U266B1 cells, Celltiter-Glo. The gist of the method: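 U266B1 multiple myeloma cells in RPMI 1640/10% FBS were treated with compound dilutions for 48 h at 37 °C, 5% CO2. Viability was measured by CellTiter-Glo luminescence; compounds drawn without stereochemistry were tested as stereoisomer mixtures.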

Data set [9] can be described thus: Liver Microsome Stability Assay (human). Conditions: human liver microsomes, with NADPH, 1.0 uM compound.
Procedure: as §1
Data set [10] concerns IL-2-FL/Gaussia Luciferase. The data set is described as follows: Dox Induced IL2-FL-Gluc Assay. The class given is cell-based. Conditions: for IC50: 24 hr Dox induction, 293FRT/TO cells, read-out: 24 hr Dox Inducible IL2FLGluc 293FRT/TO: Mean IC50; for 24 hr Dox Inducible IL2FLGluc 293FRT/TO: IL2/PD1: ratio of IL2FLGluc IC50 to PD1ssGluc IC50. In short, it runs like this:
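Stable Flp-In 293 T-REx cells carrying doxycycline-inducible full-length IL-2 (aa 1-153) fused to Gaussia luciferase, plated the day before assay. Compound dilutions added in medium containing doxycycline, incubated at 37 °C, 5% CO2. Undefined stereocentres mean data refer to stereoisomer mixtures.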

Each structure is given as a SMILES string.

As usually defined, the EC50 is the midpoint of the concentration-response curve. For `CC(=O)N1CC=C(Oc2ccc(N3CCC[C@@H]3c3csc(NC(=O)c4cccn4Cc4ccnc(F)c4)n3)cc2)CC1` [Compound A82, (R)-N-(4-(1-(4-((1-acetyl-1,2,3,6-tetrahydropyridin-4-yl)oxy)phenyl)pyrrolidin-2-yl)thiazol-2-yl)-1-((2-fluoropyridin-4-yl)methyl)-1H-pyrrole-2-carboxamide], the “Liver Microsome Stability (Multiple Species): Mouse - % Remaining after 30 min w/NADPH” value in data set [1] amounted to 0.84%. For the same molecule, the EC50 is 5660 nM in data set [2] and above 25000 nM in data set [8]. The IC50 in data set [3] was determined as 78.6 nM; in data set [4], 653 nM; in data set [5], 210 nM; in [10], 249 nM. In addition, the “24 hr Dox Inducible TNFaFLGluc 293FRT/TO: TNF/PD1” value in [4] is reported as 8.31. For the same molecule, in data set [6], the “Liver Microsome Stability (Multiple Species): Monkey - % Remaining after 30 min w/NADPH” value is 0.16%. Besides, the “Liver Microsome Stability (Multiple Species): Rat - % Remaining after 30 min w/NADPH” value in data set [7] worked out at 15.3%. In [9], the “Liver Microsome Stability (Multiple Species): Human - % Remaining after 30 min w/NADPH” value was 3.95%. Besides, in data set [10], the “24 hr Dox Inducible IL2FLGluc 293FRT/TO: IL2/PD1” value amounted to 3.2.
With `CC(C)OC(=O)Nc1ccc(N2CCC[C@@H]2c2csc(NC(=O)c3cccn3Cc3ccnc(F)c3)n2)cc1` [Compound A146, isopropyl (R)-(4-(2-(2-(1-((2-fluoropyridin-4-yl)methyl)-1H-pyrrole-2-carboxamido)thiazol-4-yl)pyrrolidin-1-yl)phenyl)carbamate], in [1], the “Liver Microsome Stability (Multiple Species): Mouse - % Remaining after 30 min w/NADPH” value is 34.8%. For the same molecule, the EC50 is 39.3 nM in data set [2] and above 25000 nM in data set [8]. The IC50 in data set [3] was 0.97 nM; in [4] it was 20.6 nM; in data set [5], 2.47 nM; in data set [10] it was 2.56 nM. Also, in data set [4], the “24 hr Dox Inducible TNFaFLGluc 293FRT/TO: TNF/PD1” value is 21.1. Besides, the “Liver Microsome Stability (Multiple Species): Monkey - % Remaining after 30 min w/NADPH” value in data set [6] was 21.6%. Also, the “Liver Microsome Stability (Multiple Species): Rat - % Remaining after 30 min w/NADPH” value in data set [7] is reported as 54.1%. Also, the “Liver Microsome Stability (Multiple Species): Human - % Remaining after 30 min w/NADPH” value in [9] stood at 49.5%. Besides, the “24 hr Dox Inducible IL2FLGluc 293FRT/TO: IL2/PD1” value in [10] was 2.6.
Regarding `Cc1cccc2nc(/C=C/c3csc(NC(=O)c4cccn4Cc4ccncc4)n3)cn12` [Compound B77, (E)-N-(4-(2-(5-methylimidazo[1,2-a]pyridin-2-yl)vinyl)thiazol-2-yl)-1-(pyridin-4-ylmethyl)-1H-pyrrole-2-carboxamide], the “Liver Microsome Stability (Multiple Species): Mouse - % Remaining after 30 min w/NADPH” value in data set [1] is given as 2.21%. Also, the EC50 in data set [2] and in [8] was above 25000 nM each time. The IC50 is 491 nM in data set [3], above 25000 nM in [4], 11500 nM in [5] and above 25000 nM in [10]. The “24 hr Dox Inducible TNFaFLGluc 293FRT/TO: TNF/PD1” value in data set [4] is above 50.9. The “Liver Microsome Stability (Multiple Species): Monkey - % Remaining after 30 min w/NADPH” value in data set [6] was 0.59%. Moreover, the “Liver Microsome Stability (Multiple Species): Rat - % Remaining after 30 min w/NADPH” value in data set [7] is 1.67%. Also, in data set [9], the “Liver Microsome Stability (Multiple Species): Human - % Remaining after 30 min w/NADPH” value was determined as 1.11%. Moreover, the “24 hr Dox Inducible IL2FLGluc 293FRT/TO: IL2/PD1” value in data set [10] is above 51.
With `C[C@@H](N)c1ccc(N2CCC[C@@H]2c2csc(NC(=O)c3cccn3Cc3ccnc(F)c3)n2)cc1` [Compound A72, N-(4-((R)-1-(4-((R)-1-aminoethyl)phenyl)pyrrolidin-2-yl)thiazol-2-yl)-1-((2-fluoropyridin-4-yl)methyl)-1H-pyrrole-2-carboxamide], in data set [1], the “Liver Microsome Stability (Multiple Species): Mouse - % Remaining after 30 min w/NADPH” value came out at 72.3%. Besides, the EC50 in data set [2] is 3770 nM; in data set [8], 6550 nM. Moreover, the IC50 in [3] came to 141 nM; in [4], 2650 nM; in data set [5] it was 197 nM; in data set [10], 316 nM. Besides, in data set [4], the “24 hr Dox Inducible TNFaFLGluc 293FRT/TO: TNF/PD1” value was determined as 18.8. For the same molecule, the “Liver Microsome Stability (Multiple Species): Monkey - % Remaining after 30 min w/NADPH” value in [6] is given as 37.8%. Also, in [7], the “Liver Microsome Stability (Multiple Species): Rat - % Remaining after 30 min w/NADPH” value is reported as 94.1%. Also, the “Liver Microsome Stability (Multiple Species): Human - % Remaining after 30 min w/NADPH” value in data set [9] amounted to 23.9%. Besides, the “24 hr Dox Inducible IL2FLGluc 293FRT/TO: IL2/PD1” value in data set [10] is listed as 2.2.

The record behind these values is patent US20230286973A1, “PROTEIN SECRETION INHIBITORS” (KEZAR LIFE SCIENCES, priority 2020, published 2023).
